Experimental data as given in PMC5056396, “Hexokinase I N-terminal based peptide prevents the VDAC1-SOD1 G93A interaction and re-establishes ALS cell viability” (Scientific Reports, 2016).

Assays:
[1] = system: NSC34-SOD1G93A cells; test: Cell viability assay (MTT); format: cell-based, mouse; details: expression from transfected plasmid
Source text: (§1) In order to analyze the effect of NHK1 peptide in our ALS-like in cellulo system, the subcellular distribution of NHK1 peptide was investigated. NSC34 cells were transiently transfected with a plasmid encoding for a HA-tagged NHK1 peptide and for a mitochondrial-targeted Red Fluorescent Protein (mtDsRED)[18]. […] Then, the NHK1 peptide, as well as the whole HK1 as control, was expressed in NSC34-SOD1G93A or SOD1WT to evaluate its ability to counteract the toxicity mediated by mutSOD1. Literature reports indicate that SOD1 mutants expression in NSC34 cell promote a significative loss of cell viability, accordingly with the specific mutation. […] Therefore, supplementation of NHK1 peptide (or HK1) to NSC34-SOD1G93A cells promotes a recovery of the cell viability.
24 h-induced NSC34-SOD1WT and NSC34-SOD1G93A cells seeded on 24-well plates were transfected using 0,25 μg of pEGFP-N1-HK1 or empty pEGFP-N1 or 0,5 μg of pMCS-mtDsRED-NHK1 or scramble or empty pCMS-mtDsRED. Cell viability was analyzed using 3-(4,5-dimethylthiazol-2-yl)-2,5-diphenyltetrazolium bromide (MTT)[47] (Sigma). A colorimetric assay was performed using the microplate reader Varioskan (Thermo Scientific). Reported data are representative for three sets of independent experiments, each performed in triplicate. Data were statistically analyzed using one-way ANOVA followed by Bonferroni post hoc test. […]

[2] = system: SOD1 G93A binding to intact mitochondria purified from NSC34 cells; test: Mitochondrial binding assay of SOD1 G93A after pre-incubation with peptide; design: species or system mouse; details: scramble control
Description: The ability of NHK1 to inhibit SOD1 G93A from binding the mitochondrial surface was investigated using intact mitochondria purified from NSC34 cells. Mitochondria were incubated with SOD1 G93A, in the presence or absence of 60 μM NHK1 peptide. […] Following incubation with NHK1, a dramatic decrease of 85% SOD1 G93A bound to mitochondria was seen (Fig. 5D). Again, no effect was found by incubating mitochondria with the ScNHK1 peptide.
Intact mitochondria were purified from NSC34 cells by Mitochondrial isolation kit (Miltenyi Biotech), according with manufacturer’s instructions. Isolated, intact mitochondria, in the storage buffer provided, were quantified by Lowry method. Mitochondria were incubated with 2 μg of purified SOD1 WT or G93A for 1 h at RT, under constant shaking in storage buffer. Alternatively, a pre-incubation with 60 μM NHK1 peptide for 1 h, in the same condition, was performed. Mitochondrial pellet was collected by centrifugation for 2 min at 13000×g. Supernatants were collected, and mitochondrial pellets were lysed using 3% Triton X-100. Proteins in mitochondrial or supernatant fraction were detected by western blot and quantified as explained in Supplementary Information. At least, three independent experiments were performed.

[3] = system: NSC34 cells; test: Subcellular distribution by indirect immunofluorescence; format: cell-based, mouse; details: HA-tagged NHK1 expressed from plasmid with mtDsRED, transient transfection
Source text: as §1
Plasmids and cell transfection […]
NSC34 cells not transfected or transfected with 0,5 µg of pCMS-mtDsRED-NHK1-HA were fixed in 3.7% formaldehyde and permeabilized using 0.3% Triton X-100. […] Endogenous HK1 was detected in not transfected cells by incubating over-night cells with rabbit anti-HK1 antibody (1:100) (Abcam). NHK1-HA was detected in transfected cells by incubating over-night cells with rabbit anti-HA antibody (1:100) (Santa Cruz Biotechnology, Inc.). […]
examined by fluorescence microscopy. […]

| Sequence | effect on cell viability of NSC34-SOD1G93A [1] | effect on SOD1 G93A bound to mitochondria [2] | subcellular localization [3] |
| --- | --- | --- | --- |
| FAQLTIALAYY [ScNHK1, scramble peptide (…) synthetized and used as control, reference compound] | does not change the cell viability | no effect | – |
| IAAQLLAYYFT [NHK1, peptide corresponding to residues 2–12 (N-terminal region) of human HK1 protein (…)] | – | – | mainly co-localized with mtDsRED signal |
